Source: patent US9464053B2, “Compositions for reducing Aβ 42 production and their use in treating alzheimer's disease (AD)” (KAREUS THERAPEUTICS SA, priority 2010, dated 2016)
Structures can show the parent of a compound that is named as a salt. Where two headings read alike, the source gives them in different places. Marks after values point to notes of the source that are not given here. One block for each compound: values may come before it.

Legend:
Aβ42 secretion = assay: Reduction of Aβ42 production in human neuronal SH-SY5Y cells (sandwich ELISA of cell media); type: cell-based; conditions: read-out: Aβ42 IC50
Procedure: We used the human Neuroblastoma SH-SY5Y cells for drug testing as a model for Aβ42 production. […] Cell toxicity was monitored using the MTT assay and all data reported are corrected for any cell loss.
The capture antibody, detection antibody and secondary antibody as well as standard purified preparations of Aβ42 were obtained from Sigma-Aldrich. Cells were cultured for 24 h in the presence or absence of compounds and the conditioned medium was subjected to sELISA.
Cells were incubated overnight with increasing concentrations the compounds. The cell media was then harvested and Aβ42 in the media was quantitated using sandwich ELISA.

Aβ-42 levels in brain = assay: Brain Aβ-42 levels in rat after two weeks oral treatment (ELISA); type: in vivo; conditions: for Percentage change: vs Control; for Aβ-42 levels Mean ± SE: rat brain, soluble fraction
Procedure: Animals are randomized into different treatment groups based on body weight. The test compounds are administered orally for 2 weeks while the control animals are administered the vehicle alone.
At the end of the study, animals are sacrificed 2 hours after the last dose and brain samples are excised and immediately frozen on dry ice. The frozen brains are homogenized in 3 volumes (w/v) of ice-cold 0.2% Diethylamine containing 50 mM NaCl, pH 10, and protease inhibitors, and then centrifuged at 15000 rpm at 4° C. for 30 min using a centrifuge. The resulting supernatant is retained as the soluble fraction and neutralized by addition of 10% 0.5 M Tris-HCl, pH 6.8.
Ar3-42 levels in brain tissue extracts were determined by ELISA. […] 100 μL of this was coated per well in a 96 well immunoplate (NUNC) at 4° C. for 16-18 hours. The plate was washed 3× with 230 μL of wash buffer. The wells were then blocked with 150 μL of blocking buffer for 1 hour. The plate was washed 3× with 230 μL of wash buffer. Samples, standard (2500-1.1 ng/ml) and blank were added to the appropriate wells and incubated with mild shaking for 2 hours. The plate was then washed 3× with 230 μL of wash buffer. […] 100 μL of this was added per well and incubated with mild shaking for 2 hours. The plate was washed 3× with 230 μl of wash buffer. 100 lit of Detection antibody, Anti-rabbit IgG whole molecule HRP conjugate (Sigma A6154 diluted 1:1000 with 1% BSA) added in to the wells and incubated for 2 hours with mild shaking. The plate was washed 3× with 230 μl of wash buffer followed by 100 μL of Strepavidin HRP (1:200 diluted with 1% BSA). The plate was 3× with 230 μL of wash buffer and 100 μL of TMB/H2O2 substrate was added and incubated for 20 minutes. The reaction was topped by adding 50 μL of 2N H2SO4 and the absorbance was measured at 450/570 nm in a microplate reader (BioTek)

soluble brain aβ-40 = assay: Tg2576 transgenic mouse model, soluble brain aβ-40 (ELISA); type: in vivo; conditions: Tg 2576 mice, 4 weeks, 50 mg/kg orally daily
Procedure: (§1) The study used 6-month old Tg (HuApp695.K670-M671L) 2576 transgenic and age-matched C57B16/SJL non-transgenic control mice (Hsiao K, Chapman P, Nilsen S, Eckman C, Harigaya Y, et al. Correlative memory deficits, Abeta elevation, and amyloid plaques in transgenic mice. Science. 1996; 274:99-102). Mice were obtained from Jackson Labs and a colony was established. Tg2576 transgenic mice over-express human APP with the double Swedish mutation. Tg2756 and control mice were treated for a period of 4 weeks with either 1) vehicle alone n=10), 2) compound 9 (50 mg/kg dosed orally; n=10). Soluble brain aβ-42 and aβ-40 were measured using the typical ELISA protocol described before.

Wistar rats = assay: Morris water maze task, scopolamine memory deficit; type: in vivo, rat; conditions: mean, p.o., scopolamine-treated
Procedure: Male wistar rats are used for this study. The Water maze consists of a 1.8 m diameter; 0.6 m high circular tank filled with water (24±2° C.). A platform 16 cm diameter will be placed 1.0 cm below the water surface in the center of one of the four imaginary quadrants, which remains constant for all the rats. […] Rats were lowered gently, feet first into water. A rat was allowed to swim for 60 s to find the platform. If the platform was found during this time the trial was stopped and rat was allowed to stay on platform for 30 s before being removed from the maze. If the platform was not found during 60 s trial, then the rat was manually placed on the platform facing a visual cue and allowed to stay on platform for 30 s before being removed from the maze. The rats were taken off the platform (ensuring that the rat sees the investigator's hand from the front before removal) and dried with a towel gently. Each rat received 4 trials in a day. The maze has 8 starting points. On the first and third day the animals started from 1st, 3rd, 5th & 7th starting points. On the second and fourth day the animals started from 2nd, 4th, 6th & […] starting points. Retention of the task was assessed on 5th day in which each animal received a single 120 s probe trial during which platform was removed from the pool. Rats were not treated prior to retention trail. Rats were placed under a heating lamp for 5 min before being returned to its home cage. Latency to reach the platform ([…]), swim speed (cm/s) and path length (cm) was measured in acquisition trials. Percentage time spent in target quadrant (quadrant in which platform is placed during acquisition training) and swim speed (cm/s) was calculated in probe trial. The animals were tracked and the data was generated using the Video Mot 2 software. Experimentation was carried out over a period of 10 days i.e. first 6 animals was experimented on first five days and the next 6 animals was experimented on next five days (Pretreatment and testing schedule was initiated accordingly such that all animals receive 9 doses of vehicle or test drug). Data obtained was analyzed by Repeated measures Two way ANOVA followed by Bonferroni post tests by using the Graph pad prism software package.

soluble brain aβ-42 = assay: Tg2576 transgenic mouse model, soluble brain aβ-42 (ELISA); type: in vivo; conditions: Tg 2576 mice, 4 weeks, 50 mg/kg orally daily
Procedure: as §1

[1] = SH-SY5Y cells incubated overnight, Aβ42 in media by sandwich ELISA
[2] = Day-1 acquisition trials, 1 mg/kg
[3] = Day-1 acquisition trials, 3 mg/kg
[4] = Day-1 acquisition trials, 10 mg/kg
[5] = Day-2 acquisition trials, 1 mg/kg
[6] = Day-2 acquisition trials, 3 mg/kg
[7] = Day-2 acquisition trials, 10 mg/kg
[8] = Day-3 acquisition trials, 1 mg/kg
[9] = Day-3 acquisition trials, 3 mg/kg
[10] = Day-3 acquisition trials, 10 mg/kg
[11] = Day-4 acquisition trials, 1 mg/kg
[12] = Day-4 acquisition trials, 3 mg/kg
[13] = Day-4 acquisition trials, 10 mg/kg

Structure (SMILES): C=CCc1ccc(OC(=O)COC(=O)c2cccnc2)c(OC)c1 (as salt: hydrochloride) [Compound 8, nicotinic acid 4-allyl-2-methoxy-phenoxycarbonylmethyl ester]
- melting point: 109.3 to 111.2 °C

Structure (SMILES): CCC(C)(C)C(=O)O[C@H]1C[C@@H](C)C=C2C=C[C@H](C)[C@H](CC[C@@H]3C[C@@H](O)CC(=O)O3)[C@H]21 [Simvastatin, reference compound]
- Percentage change (Aβ-42 levels in brain; Simvastatin 250 mg/kg oral, group terminated on day 12): 8%

Structure (SMILES): C=CCc1ccc(OC(=O)COC(=O)c2cccnc2)c(OC)c1 [Compound 8, nicotinic acid 4-allyl-2-methoxy-phenoxycarbonylmethyl ester]
- IC50 (Aβ42 secretion; SH-SY5Y): > 15 µM

Structure (SMILES): C=CCc1ccc(OC(=O)C(Cc2c[nH]c3ccccc23)NC(=O)c2cccnc2)c(OC)c1 (centres unmarked) [Compound 4]
- IC50 (Aβ42 secretion; [1]): > 52.2 µM

Structure (SMILES): C=CCc1ccc(OC(=O)C(Cc2ccc(O)cc2)NC(=O)c2cccnc2)c(OC)c1 (centres unmarked) [Compound 5, 3-(4-hydroxyphenyl)2-[(pyridine-3-carbonyl)amino]propionic acid-4-allyl-2-methoxy phenyl ester]
- IC50 (Aβ42 secretion; [1]): > 52.2 µM

Structure (SMILES): C=CCc1ccc(OC(=O)C(CC(C)C)NC(=O)c2cccnc2)c(OC)c1 (centres unmarked) [Compound 15, 4-methyl-2-[pyridine-3-carbonyl]-amino-pentanoic acid-4-allyl-2-methoxy phenyl ester]
- IC50 (Aβ42 secretion; [1]): > 52.2 µM

Further lines, with some results ahead:

- IC50 (Aβ42 secretion; [1]): > 52.2 µM
Structure (SMILES): C=CCc1ccc(OC(=O)C(CCC(=O)O)NC(=O)c2cccnc2)c(OC)c1 (centres unmarked) [Compound 7, 2-[pyridine-3-carbonyl-amino]-pentane dioic acid-1-(4-allyl-2-methoxyphenyl)ester]

- IC50 (Aβ42 secretion; [1]): 26.1 µM
Structure (SMILES): C=CCc1ccc(OC(=O)CCCNC(=O)c2cccnc2)c(OC)c1 [Compound 13, 4[(pyridine-3-carbonyl)-amino]-butyric acid-4-allyl-2-methoxy phenyl ester]

- IC50 (Aβ42 secretion; [1]): > 52.2 µM
Structure (SMILES): C=CCc1ccc(OC(=O)C(NC(=O)c2cccnc2)C(C)CC)c(OC)c1 (centres unmarked) [Compound 6, 3-methyl-2-[pyridine-3-carbonyl]-amino-pentanoic acid-4-allyl-2-methoxy phenyl ester]

- IC50 (Aβ42 secretion; [1]): > 52.2 µM
Structure (SMILES): C=CCc1ccc(OC(=O)C(CCSC)NC(=O)c2cccnc2)c(OC)c1 (centres unmarked) [Compound 2, 4-methyl-sulfanyl-2-[(pyridine-3carbonyl)-amino] butyric acid-4-allyl-2-methoxy phenyl ester]

- IC50 (Aβ42 secretion; [1]): 15.9 µM
Structure (SMILES): C=CCc1ccc(OC(=O)CNC(=O)c2cccnc2)c(OC)c1 [Compound 11, [(pyridine-3-carbonyl)-amino]-acetic acid 4-allyl-2-methoxy-phenyl ester]

- IC50 (Aβ42 secretion; [1]): > 52.2 µM
Structure (SMILES): C=CCc1ccc(OC(=O)C(NC(=O)c2cccnc2)C(C)C)c(OC)c1 (centres unmarked) [Compound 3, 3-methyl-2-[pyridine-3-carbonyl]-amino-butyric acid-4-allyl-2-methoxy phenyl ester]

- IC50 (Aβ42 secretion; [1]): 33.4 µM
Structure (SMILES): C=CCc1ccc(OC(=O)C2CCCN2C(=O)c2cccnc2)c(OC)c1 (centres unmarked) [Compound 10, 1-(pyridine-3-carbonyl)-pyrrolidine-2-carboxylic acid 4-allyl-2-methoxy-phenyl ester]

- IC50 (Aβ42 secretion; [1]): 18.7 µM
Structure (SMILES): C=CCc1ccc(OC(=O)CC(OC(=O)c2cccnc2)C(=O)OC)c(OC)c1 (centres unmarked) [Compound 9, 2-(Pyridine-3-carbonyloxy)-succinic acid 4-(4-allyl-2-methoxy-phenyl) ester 1-methyl ester]
- reduction of brain levels of soluble aβ-40 (soluble brain aβ-40): 23%
- Aβ-42 levels Mean ± SE (Aβ-42 levels in brain; 10 mg/kg oral, 2 weeks): 44.14 ± 7.88 ng/mg protein
- Aβ-42 levels Mean ± SE (Aβ-42 levels in brain; 25 mg/kg oral, 2 weeks): 31.03 ± 3.98 ng/mg protein
- Aβ-42 levels Mean ± SE (Aβ-42 levels in brain; 50 mg/kg oral, 2 weeks): 21.85 ± 1.75 ng/mg protein
- Percentage change (Aβ-42 levels in brain; 10 mg/kg oral, 2 weeks): −22%
- Percentage change (Aβ-42 levels in brain; 25 mg/kg oral, 2 weeks): −45%
- Percentage change (Aβ-42 levels in brain; 50 mg/kg oral, 2 weeks): −61%
- Path length (Wistar rats; [2]): 1423.43 cm
- Swim speed (Wistar rats; [2]): 26.53 cm/s
- Target latency (Wistar rats; [2]): 53859.40 ms
- Path length (Wistar rats; [3]): 1329.08 cm
- Swim speed (Wistar rats; [3]): 25.77 cm/s
- Target latency (Wistar rats; [3]): 50283.22^ ms
- Path length (Wistar rats; [4]): 1480.57 cm
- Swim speed (Wistar rats; [4]): 26.93 cm/s
- Target latency (Wistar rats; [4]): 54445.94 ms
- Path length (Wistar rats; [5]): 1619.28 cm
- Swim speed (Wistar rats; [5]): 30.67 cm/s
- Target latency (Wistar rats; [5]): 51421.60 ms
- Path length (Wistar rats; [6]): 1503.53 cm
- Swim speed (Wistar rats; [6]): 29.97 cm/s
- Target latency (Wistar rats; [6]): 48347.97^ ms
- Path length (Wistar rats; [7]): 1755.96 cm
- Swim speed (Wistar rats; [7]): 31.99 cm/s
- Target latency (Wistar rats; [7]): 53382.85 ms
- Path length (Wistar rats; [8]): 1414.4745^ cm
- Swim speed (Wistar rats; [8]): 31.07 cm/s
- Target latency (Wistar rats; [8]): 43128.23 ms
- Path length (Wistar rats; [9]): 1038.10** cm
- Swim speed (Wistar rats; [9]): 28.45** cm/s
- Target latency (Wistar rats; [9]): 32780.27** ms
- Path length (Wistar rats; [10]): 1509.45 cm
- Swim speed (Wistar rats; [10]): 30.89^ cm/s
- Target latency (Wistar rats; [10]): 45171.54 ms
- Path length (Wistar rats; [11]): 1233.92* cm
- Swim speed (Wistar rats; [11]): 29.51* cm/s
- Target latency (Wistar rats; [11]): 40643.54 ms
- Path length (Wistar rats; [12]): 946.10*** cm
- Swim speed (Wistar rats; [12]): 28.57*** cm/s
- Target latency (Wistar rats; [12]): 31915.04*** ms
- Path length (Wistar rats; [13]): 1254.41^ cm
- Swim speed (Wistar rats; [13]): 29.36** cm/s
- Target latency (Wistar rats; [13]): 40663.06 ms
- reduction of brain levels of soluble aβ-42 (soluble brain aβ-42): 22%

- IC50 (Aβ42 secretion; [1]): 15.4 µM
Structure (SMILES): C=CCc1ccc(OC(=O)C(C)NC(=O)c2cccnc2)c(OC)c1 (centres unmarked) [Compound 14, 4-allyl-2-methoxyphenyl 2-(nicotinamido) propanoate]
